These results are taken from ChEMBL document CHEMBL5727003, “Therapeutic inhibitory compounds” (2019).

This assay addresses Plasma kallikrein (Homo sapiens, UniProt P03952). The experiment in a line: In Vitro Enzyme Inhibition: A 10 mM solution of the test compound was made in DMSO. This solution was serially diluted 1:5 in DMSO to yield 2000, 400, 80, 16, 3.2, 0.64, 0.128, 0.0256 and 0.00512 μM compound test solutions. A control tube containing only DMSO is included. 16 μL of each compound test solution was combined with 384 μL of assay buffer (50 mM Tris-HCl pH 7.5, 150 mM NaCl, 0.01% Triton X-100) to yield a “4× test compound buffer stock”.Separately, a 40 nM solution of human Plasma Kallikrein (Abcam) and a 93.6 μM solution Pro-Phe-Arg-AMC (Bachem) were made using assay buffer. These solutions are hereby referred to as 4×hPK and 2×PFR-AMC, respectively.60 μL of each 4× test compound buffer stock was combined with 60 μL of 4×hPK to yield 120 μL of “2× test compound buffer stock/2×hPK”. 50 μL was removed from this mixture and placed into duplicate wells on a Microfluor 1Black U-bottom microtiter plate (Thermo Scientific). This plate was incubated for 5 minutes at 37° C. To each well, 50 μL of pre-warmed 2×PFR-AMC was added to start the enzymatic reaction. Cleavage of PFR-AMC was monitored in a Biotek Synergy H4 reader set at 37° C. Readings are taken every 43 seconds for 1 hour. The highest mean velocity over 20 reads (˜15 minutes) is used to calculate the IC50. The IC50 is calculated using the Gen5 (Biotek Instruments).

Chain of Plasma kallikrein (P03952 20-390 limits assumed): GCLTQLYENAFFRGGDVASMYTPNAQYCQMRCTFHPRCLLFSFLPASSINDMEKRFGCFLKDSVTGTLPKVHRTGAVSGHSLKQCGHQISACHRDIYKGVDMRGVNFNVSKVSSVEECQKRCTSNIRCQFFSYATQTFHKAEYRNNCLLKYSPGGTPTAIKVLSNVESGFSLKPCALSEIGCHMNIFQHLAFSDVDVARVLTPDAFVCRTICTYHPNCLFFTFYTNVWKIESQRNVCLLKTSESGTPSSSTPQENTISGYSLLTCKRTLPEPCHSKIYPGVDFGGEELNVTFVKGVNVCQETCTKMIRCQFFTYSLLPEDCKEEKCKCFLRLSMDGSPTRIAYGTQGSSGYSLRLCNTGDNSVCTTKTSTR
Chain of Plasma kallikrein (P03952 391-638 limits assumed): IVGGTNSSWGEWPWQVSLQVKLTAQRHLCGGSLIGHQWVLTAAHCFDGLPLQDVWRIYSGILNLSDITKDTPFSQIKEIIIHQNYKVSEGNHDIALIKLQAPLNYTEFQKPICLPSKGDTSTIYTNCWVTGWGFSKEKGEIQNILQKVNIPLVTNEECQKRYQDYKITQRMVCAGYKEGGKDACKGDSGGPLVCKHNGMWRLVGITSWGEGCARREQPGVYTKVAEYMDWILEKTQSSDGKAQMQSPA

In the case of `Cc1cc(N)nc(C)c1CNC(=O)c1cn(Cc2ccc3ncc(Cl)cc3c2)c2cccnc12`, the IC50 was under 100 nM.

Consider `Cc1cc(N)nc(C)c1CNC(=O)c1cc(C(F)(F)F)n(Cc2ccc3ncc(Cl)cc3c2)n1`, for which the IC50 was 1000 to 10000 nM.

In the case of `Cc1cc(N)nc(C)c1CNC(=O)c1nn(Cc2ccc3ncc(Cl)cc3c2)nc1C(F)(F)F`, the IC50 was under 100 nM.

In the case of `Cc1cc(N)nc(C)c1CNC(=O)c1cn(Cc2ccc3ncc(Cl)cc3c2)c(CO)n1`, the IC50 is under 100 nM.

`Cc1cc(N)nc(C)c1CNC(=O)c1ccn(Cc2ccc3ncc(Cl)cc3c2)n1`: the IC50 is under 100 nM.
